According to ChEMBL document CHEMBL1201862, “PubChem BioAssay data set” (2004):
Calls of active or inactive are those of the source.

Legend:
CAAX prenyl protease 2 = target: T1, CAAX prenyl protease 2 (Saccharomyces cerevisiae S288c, UniProt Q03530); assay type: biochemical
T1 sequence (Q03530 whole entry): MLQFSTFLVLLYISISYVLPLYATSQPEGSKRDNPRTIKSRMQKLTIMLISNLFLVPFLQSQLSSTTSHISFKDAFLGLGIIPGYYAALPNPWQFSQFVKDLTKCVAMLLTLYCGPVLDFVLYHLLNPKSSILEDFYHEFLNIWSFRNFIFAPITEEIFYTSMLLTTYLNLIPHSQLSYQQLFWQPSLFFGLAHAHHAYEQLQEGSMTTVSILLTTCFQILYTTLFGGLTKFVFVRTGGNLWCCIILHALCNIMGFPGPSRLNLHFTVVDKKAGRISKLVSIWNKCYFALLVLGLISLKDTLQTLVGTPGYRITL

Trypsin = Trypsin (Sus scrofa, UniProt P00761); assay: porcine trypsin inhibitors, dose response, selectivity assay for Rce1 protease inhibitor project, biochemical, quenched peptide fluorescence, cherry-pick (AID 488789)
Sequence of Trypsin (P00761 whole entry): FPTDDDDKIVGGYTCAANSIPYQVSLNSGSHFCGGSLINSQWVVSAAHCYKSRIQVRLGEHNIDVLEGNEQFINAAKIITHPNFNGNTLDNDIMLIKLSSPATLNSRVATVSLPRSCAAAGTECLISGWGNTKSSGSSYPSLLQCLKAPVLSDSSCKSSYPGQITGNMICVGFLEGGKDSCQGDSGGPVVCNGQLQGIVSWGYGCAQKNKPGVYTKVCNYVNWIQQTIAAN

Cytochrome P450 2D6 = Cytochrome P450 2D6 (Homo sapiens, UniProt P10635);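 further: CYP2D6 member of a cytochrome P450 panel assay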
Sequence of Cytochrome P450 2D6 (P10635 whole entry): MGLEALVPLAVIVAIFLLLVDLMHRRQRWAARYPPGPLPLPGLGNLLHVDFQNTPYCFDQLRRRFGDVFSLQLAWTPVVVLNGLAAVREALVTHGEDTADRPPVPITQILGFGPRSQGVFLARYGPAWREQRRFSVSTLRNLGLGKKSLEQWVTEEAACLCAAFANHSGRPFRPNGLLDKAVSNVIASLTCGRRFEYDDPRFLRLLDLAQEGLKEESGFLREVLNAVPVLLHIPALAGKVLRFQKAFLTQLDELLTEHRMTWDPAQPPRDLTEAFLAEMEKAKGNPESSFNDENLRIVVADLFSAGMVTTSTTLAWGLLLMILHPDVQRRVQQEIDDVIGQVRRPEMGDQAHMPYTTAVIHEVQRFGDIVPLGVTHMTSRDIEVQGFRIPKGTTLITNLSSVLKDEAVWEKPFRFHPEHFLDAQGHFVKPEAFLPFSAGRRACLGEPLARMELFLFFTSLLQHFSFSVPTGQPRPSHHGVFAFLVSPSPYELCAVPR

Cytochrome P450 2C9 = Cytochrome P450 2C9 (Homo sapiens, UniProt P11712)
Sequence of Cytochrome P450 2C9 (P11712 whole entry): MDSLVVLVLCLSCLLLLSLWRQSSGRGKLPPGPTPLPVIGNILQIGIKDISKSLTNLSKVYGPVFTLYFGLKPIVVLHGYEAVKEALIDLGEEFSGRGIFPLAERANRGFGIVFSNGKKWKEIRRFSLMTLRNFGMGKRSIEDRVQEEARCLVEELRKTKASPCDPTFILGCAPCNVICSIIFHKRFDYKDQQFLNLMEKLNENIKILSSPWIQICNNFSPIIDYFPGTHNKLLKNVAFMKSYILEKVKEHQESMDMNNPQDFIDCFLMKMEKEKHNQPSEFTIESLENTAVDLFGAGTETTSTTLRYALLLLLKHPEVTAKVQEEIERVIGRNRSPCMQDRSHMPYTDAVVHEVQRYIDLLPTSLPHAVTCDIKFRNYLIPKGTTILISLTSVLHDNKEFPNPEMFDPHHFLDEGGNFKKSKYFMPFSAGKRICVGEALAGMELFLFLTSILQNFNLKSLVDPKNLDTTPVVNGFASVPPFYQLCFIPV

Mucolipin-3 = target: T2, Mucolipin-3 (Homo sapiens, UniProt Q8TDD5); assay: Dose response cell-based high-throughput screening assay for agonists of the transient receptor potential channel ML3 (TRPML3). [Related pubchem assays: 1526, 1424, 1448 ]; assay type: functional
T2 sequence (Q8TDD5 whole entry): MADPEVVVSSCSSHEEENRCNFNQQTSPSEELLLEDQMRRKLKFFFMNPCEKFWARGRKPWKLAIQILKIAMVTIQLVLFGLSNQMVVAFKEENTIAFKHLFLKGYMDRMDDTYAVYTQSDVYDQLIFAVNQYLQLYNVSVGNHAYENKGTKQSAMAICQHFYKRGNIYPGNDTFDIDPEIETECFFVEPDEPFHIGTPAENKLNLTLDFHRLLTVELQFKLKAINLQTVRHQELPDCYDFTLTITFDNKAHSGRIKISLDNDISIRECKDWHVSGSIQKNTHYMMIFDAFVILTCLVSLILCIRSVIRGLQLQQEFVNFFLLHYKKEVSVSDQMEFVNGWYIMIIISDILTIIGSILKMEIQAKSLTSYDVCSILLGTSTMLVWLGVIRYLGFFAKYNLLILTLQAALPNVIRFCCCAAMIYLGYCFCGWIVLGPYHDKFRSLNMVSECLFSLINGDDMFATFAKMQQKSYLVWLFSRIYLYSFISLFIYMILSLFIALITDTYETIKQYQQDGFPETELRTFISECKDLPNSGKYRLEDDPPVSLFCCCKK

Ion channel NompC = Ion channel NompC (Danio rerio, UniProt Q7T1G6); assay: Fluorescence counterscreen assay for TRPML3 agonists: dose response cell-based high-throughput screening assay to identify agonists of the transient receptor potential channel N1 (TRPN1). [Related pubchem assays: 1526, 1424, 1448 ]; assay type: functional
Sequence of Ion channel NompC (Q7T1G6 whole entry): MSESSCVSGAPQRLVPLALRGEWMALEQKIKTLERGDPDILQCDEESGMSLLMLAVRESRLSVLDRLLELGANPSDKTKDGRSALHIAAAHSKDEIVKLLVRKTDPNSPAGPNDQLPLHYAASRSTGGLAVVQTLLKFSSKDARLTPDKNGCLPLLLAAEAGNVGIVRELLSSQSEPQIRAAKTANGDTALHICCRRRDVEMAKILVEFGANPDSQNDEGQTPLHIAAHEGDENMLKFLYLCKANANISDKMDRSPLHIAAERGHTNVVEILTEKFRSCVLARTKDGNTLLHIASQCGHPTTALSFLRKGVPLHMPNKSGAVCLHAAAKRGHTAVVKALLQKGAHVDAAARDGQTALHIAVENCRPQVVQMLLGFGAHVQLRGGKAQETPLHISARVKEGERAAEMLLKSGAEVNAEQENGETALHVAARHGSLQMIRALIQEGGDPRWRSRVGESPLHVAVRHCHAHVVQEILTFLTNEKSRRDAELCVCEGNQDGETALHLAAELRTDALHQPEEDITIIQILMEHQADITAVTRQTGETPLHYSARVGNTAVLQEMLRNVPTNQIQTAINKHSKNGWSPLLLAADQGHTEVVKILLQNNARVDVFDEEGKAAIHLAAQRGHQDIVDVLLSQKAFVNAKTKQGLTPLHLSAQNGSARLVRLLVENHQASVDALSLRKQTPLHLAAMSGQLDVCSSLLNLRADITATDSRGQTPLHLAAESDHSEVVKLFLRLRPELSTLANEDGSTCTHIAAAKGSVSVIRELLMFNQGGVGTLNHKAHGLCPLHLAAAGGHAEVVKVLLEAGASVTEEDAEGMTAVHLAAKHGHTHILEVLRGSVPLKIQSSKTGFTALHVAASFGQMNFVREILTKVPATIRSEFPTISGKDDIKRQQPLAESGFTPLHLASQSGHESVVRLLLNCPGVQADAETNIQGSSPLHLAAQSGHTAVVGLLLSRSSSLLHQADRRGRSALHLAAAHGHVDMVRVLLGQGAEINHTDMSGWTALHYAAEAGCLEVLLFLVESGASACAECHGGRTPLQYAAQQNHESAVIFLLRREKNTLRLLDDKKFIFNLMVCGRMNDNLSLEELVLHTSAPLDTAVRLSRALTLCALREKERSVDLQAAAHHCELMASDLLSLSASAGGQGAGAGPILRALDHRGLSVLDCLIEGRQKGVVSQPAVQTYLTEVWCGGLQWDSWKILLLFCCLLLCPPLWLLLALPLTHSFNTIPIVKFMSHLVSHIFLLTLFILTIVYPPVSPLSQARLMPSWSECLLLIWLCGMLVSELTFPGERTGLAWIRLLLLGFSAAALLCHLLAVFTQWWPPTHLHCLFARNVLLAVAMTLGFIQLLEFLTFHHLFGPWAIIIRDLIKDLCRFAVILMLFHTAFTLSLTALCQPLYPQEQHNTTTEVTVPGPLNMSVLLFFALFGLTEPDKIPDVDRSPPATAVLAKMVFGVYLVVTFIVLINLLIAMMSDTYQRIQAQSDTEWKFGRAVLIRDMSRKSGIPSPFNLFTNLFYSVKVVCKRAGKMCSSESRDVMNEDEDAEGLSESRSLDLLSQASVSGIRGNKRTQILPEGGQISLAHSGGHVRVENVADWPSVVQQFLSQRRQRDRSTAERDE

[1] = A Cell Based Secondary Assay To Explore Cytotoxicity of Compounds that Sensitize Mycobacterium Tuberculosis to Beta-Lactam Antibiotics.; assay type: functional
HeLa = assay: HeLa cell cytotoxicity, dose response, cytotoxicity control, 24 h, cherry-picked samples (AID 504726); assay type: functional, cell-based; conditions: Homo sapiens;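 further: potency for cytotoxicity as loss of luminescence signal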
X-box-binding protein 1 = target: T3, X-box-binding protein 1 (Homo sapiens, UniProt P17861); assay type: functional, Cricetulus griseus;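 further: confirmatory dose-response counter-screen serving a CHOP assay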
T3 sequence (P17861 whole entry): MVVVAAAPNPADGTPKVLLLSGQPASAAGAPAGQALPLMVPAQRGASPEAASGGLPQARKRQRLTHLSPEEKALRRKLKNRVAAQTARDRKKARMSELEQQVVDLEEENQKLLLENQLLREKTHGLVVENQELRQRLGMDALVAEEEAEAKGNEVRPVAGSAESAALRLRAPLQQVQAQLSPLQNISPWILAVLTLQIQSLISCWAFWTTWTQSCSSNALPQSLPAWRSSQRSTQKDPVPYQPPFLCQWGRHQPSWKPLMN

Bcl-2-like protein 10 = target: T4, Bcl-2-like protein 10 (Homo sapiens, UniProt Q9HD36); assay: displacers of TR3 peptide from Bcl-B, primary screen, selectivity assay for Bfl-1 inhibitor project, biochemical, fluorescence polarization, FITC-TR3 peptide (AID 748);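 further: fluorescence polarization from a fluorescein-labelled TR3 peptide binding purified Bcl-B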
T4 sequence (Q9HD36 whole entry): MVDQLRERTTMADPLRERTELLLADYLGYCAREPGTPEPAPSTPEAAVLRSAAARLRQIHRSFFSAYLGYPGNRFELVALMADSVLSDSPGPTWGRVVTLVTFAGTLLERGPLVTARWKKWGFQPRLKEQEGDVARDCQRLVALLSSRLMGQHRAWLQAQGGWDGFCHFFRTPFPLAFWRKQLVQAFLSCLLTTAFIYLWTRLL

[2] = target: T5, Heat shock factor protein 1 (Mus musculus, UniProt P38532); assay: inhibition of MG132-induced HSE-luciferase signal, confirmation, cell-based, NIH3T3, luminescence, dose retest (AID 2382); assay type: functional;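 further: NIH3T3 fibroblasts with HSF1-driven luciferase reporter stressed by proteasome inhibitor MG132; luminescence from HSF1-driven luciferase expression after 8 hours of MG132 stress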
T5 sequence (P38532 whole entry): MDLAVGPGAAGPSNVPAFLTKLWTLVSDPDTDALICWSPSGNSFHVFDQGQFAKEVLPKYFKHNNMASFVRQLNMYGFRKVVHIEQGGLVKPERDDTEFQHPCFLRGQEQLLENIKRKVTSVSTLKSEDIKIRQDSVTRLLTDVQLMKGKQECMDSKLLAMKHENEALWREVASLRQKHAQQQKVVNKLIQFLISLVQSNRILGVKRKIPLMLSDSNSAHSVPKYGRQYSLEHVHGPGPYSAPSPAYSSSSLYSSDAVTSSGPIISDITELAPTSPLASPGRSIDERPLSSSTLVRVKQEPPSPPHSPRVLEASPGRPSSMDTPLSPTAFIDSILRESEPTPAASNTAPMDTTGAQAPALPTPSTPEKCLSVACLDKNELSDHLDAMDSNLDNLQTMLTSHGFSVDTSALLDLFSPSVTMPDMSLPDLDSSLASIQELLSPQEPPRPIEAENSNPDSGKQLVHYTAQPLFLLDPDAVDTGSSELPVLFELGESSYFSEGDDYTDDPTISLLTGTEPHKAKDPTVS

[3] = target: G-protein coupled receptor 55 (Homo sapiens, UniProt Q9Y2T6); assay: GPR55 antagonists blocking LPI-driven arrestin recruitment, primary screen, imaging, U2OS, beta-arrestin-GFP, LPI agonist (AID 2013); assay type: functional;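 further: antagonist potency measured as reduced agonist-driven arrestin aggregation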
Sequence of G-protein coupled receptor 55 (Q9Y2T6 whole entry): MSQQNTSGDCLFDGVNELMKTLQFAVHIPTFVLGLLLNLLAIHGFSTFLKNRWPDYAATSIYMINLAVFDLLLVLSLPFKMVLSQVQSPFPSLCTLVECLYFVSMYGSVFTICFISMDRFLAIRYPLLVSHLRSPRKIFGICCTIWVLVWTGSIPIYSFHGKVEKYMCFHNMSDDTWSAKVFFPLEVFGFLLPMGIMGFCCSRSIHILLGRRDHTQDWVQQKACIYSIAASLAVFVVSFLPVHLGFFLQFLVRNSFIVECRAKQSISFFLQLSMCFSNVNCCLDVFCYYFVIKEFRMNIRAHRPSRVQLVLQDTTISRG

[4] = target: T6, Lysosomal acid glucosylceramidase (Homo sapiens, UniProt P04062); assay: Dose response cell-based high throughput screening assay to identify enhancers of beta-glucosidase activity. [Related pubchem assays: 784 ]; assay type: functional
T6 sequence (P04062 whole entry): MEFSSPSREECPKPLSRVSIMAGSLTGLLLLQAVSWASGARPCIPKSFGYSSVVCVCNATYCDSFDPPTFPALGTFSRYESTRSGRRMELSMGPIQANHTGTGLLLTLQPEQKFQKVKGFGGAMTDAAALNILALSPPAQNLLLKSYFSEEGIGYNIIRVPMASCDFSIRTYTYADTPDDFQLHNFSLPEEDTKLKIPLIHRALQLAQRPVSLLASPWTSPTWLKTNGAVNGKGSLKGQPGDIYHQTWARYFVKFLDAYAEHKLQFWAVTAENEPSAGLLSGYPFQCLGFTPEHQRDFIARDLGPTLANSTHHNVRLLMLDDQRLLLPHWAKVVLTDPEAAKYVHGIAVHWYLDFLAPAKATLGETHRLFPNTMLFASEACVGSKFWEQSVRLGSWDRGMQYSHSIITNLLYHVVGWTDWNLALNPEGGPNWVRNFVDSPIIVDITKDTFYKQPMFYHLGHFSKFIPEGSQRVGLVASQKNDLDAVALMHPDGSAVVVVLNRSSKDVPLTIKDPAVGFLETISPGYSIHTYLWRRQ

Cytochrome P450 3A4 = Cytochrome P450 3A4 (Homo sapiens, UniProt P08684);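 further: CYP3A4 tested as one member of a cytochrome P450 panel screen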
Sequence of Cytochrome P450 3A4 (P08684 whole entry): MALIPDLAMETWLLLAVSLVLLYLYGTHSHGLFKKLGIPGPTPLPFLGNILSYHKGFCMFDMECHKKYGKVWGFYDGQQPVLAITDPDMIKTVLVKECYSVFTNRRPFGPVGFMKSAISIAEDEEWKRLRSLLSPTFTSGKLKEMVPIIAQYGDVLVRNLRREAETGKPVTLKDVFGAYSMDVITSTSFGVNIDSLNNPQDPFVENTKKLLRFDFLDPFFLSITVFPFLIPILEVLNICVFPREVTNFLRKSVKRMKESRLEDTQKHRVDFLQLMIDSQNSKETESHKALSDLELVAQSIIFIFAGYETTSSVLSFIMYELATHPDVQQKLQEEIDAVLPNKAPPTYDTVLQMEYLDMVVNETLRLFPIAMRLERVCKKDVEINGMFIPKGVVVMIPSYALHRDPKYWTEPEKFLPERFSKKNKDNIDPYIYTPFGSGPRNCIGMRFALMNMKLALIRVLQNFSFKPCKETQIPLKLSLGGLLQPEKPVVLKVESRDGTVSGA

[5] = target: Peroxisome proliferator-activated receptor gamma/Nuclear receptor coactivator 3 (Homo sapiens, UniProt P37231); assay type: functional;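 further: agonist potency for raising coactivator recruitment to the receptor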
[6] = target: Peroxisome proliferator-activated receptor gamma/Nuclear receptor coactivator 1 (Homo sapiens, UniProt P37231); assay type: functional;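 further: agonist potency as compounds enhance coactivator SRC-1 recruitment to PPARgamma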
[7] = target: Peroxisome proliferator-activated receptor gamma/Nuclear receptor coactivator 2 (Homo sapiens, UniProt P37231); assay type: functional;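 further: agonist potency for raising coactivator recruitment to the receptor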
fMet-Leu-Phe receptor = target: T7, fMet-Leu-Phe receptor (Homo sapiens, UniProt P21462); assay: FPR ligands, dose response (AID 519); assay type: functional
T7 sequence (P21462 whole entry): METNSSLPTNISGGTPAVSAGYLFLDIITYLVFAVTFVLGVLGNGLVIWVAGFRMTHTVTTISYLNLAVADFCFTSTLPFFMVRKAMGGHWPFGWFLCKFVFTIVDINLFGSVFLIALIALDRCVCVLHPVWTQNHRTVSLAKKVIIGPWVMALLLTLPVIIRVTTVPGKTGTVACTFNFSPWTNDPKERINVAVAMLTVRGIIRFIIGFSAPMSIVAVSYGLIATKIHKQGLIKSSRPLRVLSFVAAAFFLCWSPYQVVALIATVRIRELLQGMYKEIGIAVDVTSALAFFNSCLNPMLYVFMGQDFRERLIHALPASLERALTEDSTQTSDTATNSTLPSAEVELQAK

[8] = HEp-2 cell cytotoxicity, dose response, cytotoxicity control for RSV inhibitor project, HTS (AID 2410); assay type: functional; conditions: human respiratory syncytial virus
[9] = Luminescence Cell-Based Dose Retest to Confirm Inhibitors of Cancer Stem Cells. [Related pubchem assays (depositor defined):AID2717, AID2721]; assay type: functional; conditions: Homo sapiens
Hexokinase = target: T8, Hexokinase (Trypanosoma brucei, UniProt Q38C41); assay: Confirmation assay for inhibitors of Trypanosoma brucei hexokinase 1-Analogue-first series. [Related pubchem assays (depositor defined):AID1430, AID1632, AID2516, AID2560, AID2579, AID2600, AID449725, AID492951]; assay type: functional
T8 sequence (Q38C41 whole entry): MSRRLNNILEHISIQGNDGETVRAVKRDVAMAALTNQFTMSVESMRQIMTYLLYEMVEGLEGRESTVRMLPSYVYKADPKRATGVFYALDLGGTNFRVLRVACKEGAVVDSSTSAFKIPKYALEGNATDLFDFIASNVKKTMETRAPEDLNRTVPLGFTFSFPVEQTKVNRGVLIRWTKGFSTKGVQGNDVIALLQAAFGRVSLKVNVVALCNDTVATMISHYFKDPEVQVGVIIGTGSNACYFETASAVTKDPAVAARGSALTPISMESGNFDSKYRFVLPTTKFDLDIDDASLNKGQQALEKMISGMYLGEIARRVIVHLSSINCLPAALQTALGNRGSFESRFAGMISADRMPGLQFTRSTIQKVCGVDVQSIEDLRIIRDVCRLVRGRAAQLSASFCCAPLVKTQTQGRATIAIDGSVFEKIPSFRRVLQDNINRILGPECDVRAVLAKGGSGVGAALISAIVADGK

Cc1cc(C)n2cc(CSc3nncn3C)nc2n1
AC50 (CAAX prenyl protease 2): 13.8 µM (active) | AC50 (Trypsin): 8.35 µM (active)

O=c1c(-c2nnc(SCc3ccc(Cl)c(Cl)c3)o2)cccn1Cc1ccccc1
AC50 (Cytochrome P450 2D6): 28.2 µM (inconclusive) | AC50 (CAAX prenyl protease 2): 11 µM (active) | AC50 (Cytochrome P450 2C9): 15.8 µM (inconclusive)

O=S(=O)(Nc1ccccc1N1CCCCC1)c1ccc(F)cc1
EC50 (Mucolipin-3): 3.27 µM (active) | EC50 (Ion channel NompC): > 29.9 µM (not active)

CCN1C(=O)[C@@H]2[C@@H](c3ccc(-c4ccc(Cl)c(Cl)c4)c(OC)c3)N3CCC[C@@]3(C(=O)OC)[C@@H]2C1=O
CC50 [1]: 30.4 µM (active)

CCOC(=O)c1cnc(SC)nc1Sc1ccc(Cl)cc1Cl
AC50 (HeLa): 261 µM (active)

CCN(CC)CCOC(=O)c1ccc(N/C=C(/C#N)c2nc(-c3cccc(OC)c3)cs2)cc1
Absolute IC50 (XBP1) (X-box-binding protein 1): 10 µM

Cc1c(NC(=O)c2cc3nc(-c4ccccc4)cc(C)n3n2)c(=O)n(-c2ccccc2)n1C
IC50 (Bcl-2-like protein 10): 81.2 µM (inactive)

Cc1cc(C(C)(C)C)oc1C(=O)N(CC(=O)NC1CCCC1)c1c(C)cccc1C
EC50 (Mucolipin-3): 2.54 µM (active) | EC50 (Ion channel NompC): > 29.9 µM (not active) | EC50 [2]: > 195 µM (not active)

Cc1ccccc1N(C(=O)c1cccs1)c1nc2ccccc2s1
IC50 [3]: 1.52 µM (active)

COC(=O)c1ccc(NC2c3ncccc3C(=O)N2Cc2cccs2)cc1 (stereo unspecified)
IC50 (cells): 5.98 µM (active)

CCOc1cc(S(=O)(=O)N2CCCCCC2)ccc1F
EC50 (Mucolipin-3): > 29.9 µM (not active) | EC50 (Ion channel NompC): > 29.9 µM (not active)

O=C(CSc1nnc2c(n1)[nH]c1ccc(F)cc12)OCc1ccccc1
EC50 [4]: > 50 µM (not active) | AC50 (Cytochrome P450 3A4): 8.91 µM (inconclusive) | AC50 (Cytochrome P450 2C9): 0.0708 µM (inconclusive)

COCc1c(C(=O)OC)nnn1-c1ccccc1
EC50 [5]: > 79.4 µM (not active) | EC50 [6]: > 79.4 µM (not active) | EC50 [7]: > 79.4 µM (not active)

CNS(=O)(=O)c1ccc(OC)c(-c2nnc3c4ccccc4c(C)nn23)c1
IC50 (cells): 26.5 µM (active)

Cc1ccc(S(=O)(=O)Nc2cc(C(=O)O)ccc2N2CCCCC2)cc1
EC50 [4]: > 50 µM (not active)

Cc1ccc(C)c(C(=O)C2=C(O)C(=O)N(CCCn3ccnc3)C2c2ccncc2)c1 (stereo unspecified)
EC50 [4]: > 50 µM (not active) | Ki (fMet-Leu-Phe receptor): > 66.7 µM (inactive)

O=C(Nc1cccnc1)c1ccc(S(=O)(=O)N2CCCCCC2)cc1
IC50 (Bcl-2-like protein 10): > 100 µM (inactive)

COC(=O)C1=C(c2ccc(F)cc2F)C[C@@H]2CC[C@H]1N2C(=O)N1CCC(C)CC1
IC50 (cells): 41.2 µM (active) | CC50 [8]: 34.2 µM (active)

CNC(=O)NC(=O)C(C)OC(=O)c1oc2ccccc2c1CSc1ccc(Cl)cc1 (stereo unspecified)
AC50 [9]: 12.3 µM (active) | Absolute IC50 (XBP1) (X-box-binding protein 1): 10 µM

O=C(Nc1cc(Cl)ccc1C(=O)O)c1ccc(OC(F)(F)F)cc1
IC50 (Hexokinase): > 25 µM (inactive)

O=c1c2c(Br)cccc2sn1-c1ccccc1
IC50 (Hexokinase): 1.93 µM (active)

Cc1ccnn1CC(=O)N/N=C/c1ccc([N+](=O)[O-])s1
CC50 [1]: 36 µM (active)
